Measurements taken from PubChem BioAssay (NCI).
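96-well plates; 48 h exposure; 5 concentrations. Endpoints by linear interpolation between flanking doses. Not reached: highest tested concentration assigned. GI50 marks 50% less growth. TGI is the concentration that stops growth completely.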

Experiments:
Assay in all cases: NCI tumour cell line growth inhibition, 48 h
HOP-62 NSCLC = test system: HOP-62 NSCLC
HT29 colon = test system: HT29 colon
KM12 colon = test system: KM12 colon
LOX IMVI melanoma = test system: LOX IMVI melanoma
SF-539 CNS = test system: SF-539 CNS
SK-MEL-2 melanoma = test system: SK-MEL-2 melanoma
SK-MEL-5 melanoma = test system: SK-MEL-5 melanoma
SW-620 colon = test system: SW-620 colon
UACC-257 melanoma = test system: UACC-257 melanoma
UACC-62 melanoma = test system: UACC-62 melanoma

Structure (SMILES)	TGI (HOP-62 NSCLC) [µM]	TGI (HT29 colon) [µM]	TGI (KM12 colon) [µM]	TGI (LOX IMVI melanoma) [µM]	TGI (SF-539 CNS) [µM]	TGI (SK-MEL-2 melanoma) [µM]	TGI (SK-MEL-5 melanoma) [µM]	TGI (SW-620 colon) [µM]	TGI (UACC-257 melanoma) [µM]	TGI (UACC-62 melanoma) [µM]	GI50 (LOX IMVI melanoma) [µM]	GI50 (SK-MEL-5 melanoma) [µM]	GI50 (HT29 colon) [µM]	GI50 (KM12 colon) [µM]	GI50 (SF-539 CNS) [µM]	GI50 (SK-MEL-2 melanoma) [µM]	GI50 (SW-620 colon) [µM]	GI50 (UACC-257 melanoma) [µM]	GI50 (UACC-62 melanoma) [µM]
COc1ccc(-c2nc3ncccn3c2-c2ccc(SC)cc2)cc1	44.3	28.1	13.3	80.4	5.85	> 100	4.29	> 100	> 100	13									
COc1ccc2c(C(=O)c3cn(CCN4CCOCC4)c4ccccc34)cccc2c1	> 100	> 100	> 100	> 100	> 100	> 100	> 100	> 100	> 100	> 100									
O=C(O)CCSC(CC1(c2ccc(Cl)cc2)NC(=O)CCS1)c1ccccc1 (stereo unspecified)	44.1	38.1	14.1	> 100	27.3	38.7	48	41.7	49.1	39.7									
NCCc1cc(O)c(O)cc1O	45	67.6	58.5	40	44.3	71.7	38.6	40	62.1	74.9	19.1								
O=P1(c2ccccc2)Nc2ccccc2SSc2ccccc2N1		37.1	30.4	35.1	34.3	32.2	31.6	33.7	30.3	29.8									
CSc1ccsc1-c1sc(-c2cc(SC)c(-c3sc(-c4cc(SC)c(-c5sccc5SC)s4)cc3SC)s2)cc1SC	> 100	> 100	> 100	> 100	> 100	> 100	> 100	69.7	> 100	> 100									
CN(C)CCCn1cnc2cc(Cl)c(Cl)cc21	> 100	> 100	> 100	> 100		> 100	> 100	> 100	40.7	82.2									
CCCOC(=O)CNC(=O)OC(C)(C)C	> 100	> 100	> 100	> 100	> 100	> 100	> 100	> 100	> 100	> 100									
COc1ccc(/C(Cl)=C(\C=O)c2ccc(OC)cc2)cc1	> 100	> 100		> 100	> 100	> 100	> 100	> 100	> 100	> 100									
N=C1C(=N)c2ccccc2-c2ccccc21.N=C1C(=N)c2ccccc2-c2ccccc21.N=C1C(=N)c2ccccc2-c2ccccc21.[Cl-].[Ru+2]	8.97	> 31.6	> 68	7.94	3.27		3.71	3.74	3.53	3.5		1.91							
COC(C)(C)OCCN1CCN(CCN2C3=C(C=C(C(C)=O)C3)Sc3ccccc32)CC1	36.2	33.2	32.6	42.2	39.8	41.4	32	37.2	36.9	29.4									
C=CCN(C(=O)CNC(=O)C(F)(F)F)c1cc(OCc2ccccc2)c2c(c1)c(C)cn2S(=O)(=O)c1ccccc1	> 100	> 100	> 100	> 100	> 100	> 100	> 100		> 100	> 100									
CC(=O)NNc1nc(-c2ccc([N+](=O)[O-])cc2)c(C#N)c(=O)n1C	52.5	> 100	> 100	41.3	35.1	> 100	> 100	> 100	> 100	> 100									
Cc1cc(/N=C/c2ccc(F)cc2)n(-c2ccccc2)n1	> 100	> 100	> 100	> 100	> 100	> 100	> 100	> 100	> 100	> 100									
NCCCn1c2c(c3ccc([N+](=O)[O-])cc3c1=O)C(=O)c1ccccc1-2		1.14	1.23	0.225	0.596	> 50	0.479	1.24	> 16.6	0.431	0.0173	0.0956	0.0785	0.0892	0.138	1.6	0.0215	0.495	0.102
COc1cc(C2CC(c3cccc(Nc4ccncc4)c3)=NN2c2ccc(Cl)cc2)cc(OC)c1OC (stereo unspecified)		4.82	3.31		3.05	3.91	3.14	3.19	3.84	3.14		1.75	1.87	1.67	1.64	1.89	1.68	1.96	1.69
